# Reference: US11311565B2, “Synergistic nutritional compositions for promoting axonal regeneration” (CELAGENEX RESEARCH (INDIA) PVT. LTD., priority 2020, dated 2022)
# How the values were obtained:
# Format in all cases: in vivo, Swiss albino mice
# NTF3 = test: SCI animal study: fold increase in plasticity protein NTF3; details: animals subjected to SCI, 6 animals per group
# Description: (§1) The purpose of this study is to evaluate the effect of the test substance in Swiss albino rats.
# (§2) No. of animals: 30 Animals (5 groups of 6 animals each)
# (§3) Group 1 is placebo, Group 2 was given a standard treatment of antithrombotic, antiepileptic, anti-inflammatory and steroid protocol (methylprednisolone) and Group 3, Group 4 and Group 5 served as test substance. Animals were subjected to SCI and outcome measures were monitored.
# animals subjected to SCI = test: SCI animal study: improvement of limb movements; details: baseline is 1
# Description: as §1, §2, §3
# NGF = test: SCI animal study: fold increase in plasticity protein NGF; details: animals subjected to SCI, 6 animals per group
# Description: as §1, §2, §3
# GAP-43 = test: SCI animal study: fold increase in plasticity protein GAP-43; details: animals subjected to SCI, 6 animals per group
# Description: as §1, §2, §3
# [1] = test system: axons crossing denervated side; test: SCI animal study: subjects with >1000 axons crossing denervated side; details: animals subjected to SCI; % subjects
# Description: as §1, §2, §3
# 4. Subjects with >1000 axons crossing denervated side—as % subjects
# BDNF = test: SCI animal study: fold increase in plasticity protein BDNF; details: animals subjected to SCI, 6 animals per group
# Description: as §1, §2, §3
smiles,measurement,setting,value
"N=C(N)NCCCCN.O=S(=O)(O)O [Test II, Agmatine Sulphate]",No. of fold increase in plasticity proteins from baseline: NTF3,NTF3,1.17 fold
same,Percentage improvement of limb movements to baseline (Baseline as 1),animals subjected to SCI,0.34
same,No. of fold increase in plasticity proteins from baseline: NGF,NGF,1.69 fold
same,No. of fold increase in plasticity proteins from baseline: GAP-43,GAP-43,3.44 fold
same,percentage of subjects with >1000 axons crossing denervated side,[1],18%
same,No. of fold increase in plasticity proteins from baseline: BDNF,BDNF,2.44 fold
